For experiment [1], the system named is CHO cells. Description: Deletion analysis, cell death by trypan blue exclusion. The note with it: 10 μg construct, trypan blue exclusion 48 hours after transfection. The format is cell-based, Chinese hamster. As to the method: The amino-terminal portion of Bit1 (residues 16-40) is hydrophobic and can serve as a transmembrane domain or signal peptide sequence. When the hydrophobicity of this portion was reduced by substitution of glycine 22 and glycine 38 by serine, Bit1 apoptotic activity was reduced.
Deletion analysis was performed as follows. The indicated deletion mutants were cloned into vector pEGFP-C1, and 10 μg of each plasmid construct transfected into CHO cells. Cell death was measured by trypan blue exclusion 48 hours after transfection.
To delineate the pro-apoptotic domain of AES, a series of AES deletion mutants was prepared as amino-terminal fusions with GFP in vector pEGFP-C1. Various AES deletion constructs (10 μg) were transfected into CHO cells, and cell death measured by trypan blue exclusion 48 hours after transfection.

Experiment [2] has as its system Bit1-AES complex in HeLa cells. The experiment in a line: Co-immunoprecipitation of Bit1-AES complex, cells plated on fibronectin or collagen. Type of experiment: cell-based. The note with it: HeLa cells plated on fibronectin versus collagen, quantification of gel bands, 24 h after transfection. As to the method:
In these experiments, HeLa cells were plated on fibronectin or collagen before transfection with pCMV-Myc-Bit1 (3 μg) and pCMV-flag-AES (3 μg) plasmids. Cell lysates were harvested 24 h after transfection and immunoprecipitated with anti-flag and immunoblotted with anti-myc. The total amount of DNA used was adjusted to 10 μg with empty vector in each transfection. The expression of the transfected AES in each sample was confirmed by immunoblotting 20 μl of the whole extract with anti-flag as is shown in FIG. 6C, lower boxes in B and C.
Thus, a low level of Bit1/AES complex correlated with cell survival and a high level is associated with apoptosis.

Experiment [3] concerns Bit1-induced apoptosis in HEK 293 cells. Description: Extracellular matrix proteins and Bit1-induced apoptosis, trypan blue staining. Type of experiment: cell-based, human. The note with it: HEK 293 cells plated onto coated dishes, 10 μg Bit1 plasmid, 48 hours. As to the method:
Several extracellular matrix proteins were assayed for the ability to modulate Bit1-mediated apoptosis. Cells were plated onto bacterial culture dishes pre-coated overnight with fibronectin (Chemicon; Temecula; CA), vitronectin (SIGMA; St. Louis, Mo.) or type I collagen (SIGMA), and transfected and assayed for apoptosis as described above.
To analyze integrin involvement in protecting attached cells against the pro-apoptotic effect of Bit1, Bit1 cell lines expressing either α5β1 or αvβ1 as the main fibronectin receptor were compared. The two cell lines attach equally well to fibronectin but, like cytoplasmically truncated α5β1, αvβ1 fails to protect cells against apoptosis induced by serum deprivation (Zhang et al., supra, 1995; and Matter and Ruoslahti, supra, 2001).
Experiments with extracellular matrix proteins were performed as follows. Cells were plated onto uncoated tissue culture plates or onto bacterial culture plates coated with fibronectin, vitronectin or collagen, and allowed to attach in the presence of serum. The attachment was equal on all of these surfaces. The cells were then transfected with 10 μg of Bit1 expression plasmid; where indicated, cells were treated with a control IgG of unrelated specificity or monoclonal anti-human α5 antibody (Chemicon), both at 10 μg/ml. Cell death was measured by trypan blue staining 48 hours after the transfection.

The subject of experiment [4] is Bit1-induced apoptosis in 293T cells. The experiment in a line: Caspase inhibitors and anti-apoptotic proteins against Bit1. The format is cell-based, human. The note with it: cytosolic Bit1.
Excerpt: (§1) 293T cells were also co-transfected with Bit1 or AES and the caspase inhibitor proteins crmA and XIAP.
Experiment [5] relates to AES-induced apoptosis in 293T cells. The experiment in a line: Caspase inhibitors and anti-apoptotic proteins against AES. Type of experiment: cell-based, human.
Excerpt: as §1
In experiment [6] the test system is Bit1-induced apoptosis in HEK 293 cells. Description: Co-transfection of Bit1 with anti-apoptotic proteins. Type of experiment: cell-based, human. To be noted: HEK 293 cells co-transfected with Bit1. How it is done:
Co-transfections were performed with cells plated on non-coated dishes transfected with 5 μg Bit1 plasmid alone or together with 10 μg dominant negative (DN) R-Ras, or activated H-Ras plasmid (Zou et al., Proc. Natl. Acad. Sci. USA 96: 13813-13818 (1999)). […] Expression of the transfected proteins was confirmed by immunoblotting. Apoptosis was assayed as described above.

Experiment [7] has as its system Bit1 in HeLa cells. Description: Localization of C-terminally tagged Bit1 in cells induced to undergo apoptosis. Type of experiment: cell-based. The note with it: 0.5 μM staurosporin. From the text: Colocalization of Bit1 with an endoplasmic reticulum or golgi marker was not observed.

The values that follow come from patent US8017326B2, “Methods of modulating cell death based on the Bit-1/AES regulatory pathway” (Sanford-Burnham Medical Research Institute, priority 2002, dated 2011).

Where a SMILES comes first, the peptide text is derived from it. Where no end group is shown, it is not given here. The star is where a group is joined. Cbz = O=C(OCc1ccccc1)*; CH2F = FC*

“AES residues 57-105: AES deletion mutant, amino-terminal fusion with GFP (SEQ ID NO:8) (MQRHYVMYYEMSYGLNIEMHKQAEIVKRLNGICAQVLPYLSQEHQQQVL; also: amino-terminal fusion with GFP; UniProt Q08117 57-105, looked up, fragment)”: in experiment [1], the “pro-apoptotic activity of deletion constructs” value is on record as “efficiently induced apoptosis”.
On the same count and under the same terms, for “AES residues 57-88: AES deletion mutant, amino-terminal fusion with GFP (SEQ ID NO:9) (MQRHYVMYYEMSYGLNIEMHKQAEIVKRLNGI; also: amino-terminal fusion with GFP; UniProt Q08117 57-88, looked up, fragment)” the value was “efficiently induced apoptosis”.
fibronectin: the “reduction in Bit1/AES complex on fibronectin” value in experiment [2] is reported as “approximately 75%”. Also, the “protection from Bit1-induced apoptosis” value in experiment [3] is recorded as “largely protected”.
For the molecule “collagen: type I collagen coated on culture dishes (SIGMA)”, the “protection from Bit1-induced apoptosis” value in experiment [3] is “could not confer the same protective effect”.
Regarding `COC(=O)C[C@H](NC(=O)[C@H](C)NC(=O)[C@@H](NC(=O)OCc1ccccc1)C(C)C)C(=O)CF` [z-VAD-fmk] (Cbz-Val-Ala-Asp(OMe)-CH2F), in experiment [4], the “effect on apoptosis induced by Bit1” value is “ineffective”. The “effect on apoptosis induced by AES” value in experiment [5] is given as “ineffective”.
As for “AES residues 1-56: AES deletion mutant, amino-terminal fusion with GFP (MMFPQSRHSGSSHLPQQLKFTTSDSCDRIKDEFQLLQAQYHSLKLECDKLASEKSE; cysteine pairing not given here; also: amino-terminal fusion with GFP; UniProt Q08117 1-56, looked up, fragment)”, the “pro-apoptotic activity of deletion constructs” value in experiment [1] is on record as “no apoptotic activity”.
Regarding “Bcl-2: anti-apoptotic protein, expression construct pcDNA3-Bcl-2”, the “effect on apoptosis induced by Bit1” value is “little or no effect” in experiment [6] and “no effect” in experiment [4]. Further, the “effect on apoptosis induced by AES” value in experiment [5] was “partially effective”.
Consider `CN[C@@H]1C[C@H]2O[C@@](C)([C@@H]1OC)n1c3ccccc3c3c4c(c5c6ccccc6n2c5c31)C(=O)NC4` [staurosporin], for which, in experiment [7], the “localization of C-terminally tagged Bit1” value was “released into the cytoplasm”.
